# Measured values published in patent US8338420B1, “Treatment of Parkinson's disease and enhancement of dopamine signal using PDE 10 inhibitor” (Mitsubishi Tanabe Pharma Corporation, priority 2002, dated 2012).
# Assays:
# PDE2 = target: T1, PDE2 (Bos taurus, UniProt P14099); test: PDE assay, PDE2 enzyme solution from bovine adrenal gland; assay type: biochemical, Japanese Black Cattle
# T1 construct: tissue Tokyo Shibaura Zoki; host or cells: bovine adrenal gland, soluble fraction, ion-exchange fractions
# T1 sequence (P14099 1-921): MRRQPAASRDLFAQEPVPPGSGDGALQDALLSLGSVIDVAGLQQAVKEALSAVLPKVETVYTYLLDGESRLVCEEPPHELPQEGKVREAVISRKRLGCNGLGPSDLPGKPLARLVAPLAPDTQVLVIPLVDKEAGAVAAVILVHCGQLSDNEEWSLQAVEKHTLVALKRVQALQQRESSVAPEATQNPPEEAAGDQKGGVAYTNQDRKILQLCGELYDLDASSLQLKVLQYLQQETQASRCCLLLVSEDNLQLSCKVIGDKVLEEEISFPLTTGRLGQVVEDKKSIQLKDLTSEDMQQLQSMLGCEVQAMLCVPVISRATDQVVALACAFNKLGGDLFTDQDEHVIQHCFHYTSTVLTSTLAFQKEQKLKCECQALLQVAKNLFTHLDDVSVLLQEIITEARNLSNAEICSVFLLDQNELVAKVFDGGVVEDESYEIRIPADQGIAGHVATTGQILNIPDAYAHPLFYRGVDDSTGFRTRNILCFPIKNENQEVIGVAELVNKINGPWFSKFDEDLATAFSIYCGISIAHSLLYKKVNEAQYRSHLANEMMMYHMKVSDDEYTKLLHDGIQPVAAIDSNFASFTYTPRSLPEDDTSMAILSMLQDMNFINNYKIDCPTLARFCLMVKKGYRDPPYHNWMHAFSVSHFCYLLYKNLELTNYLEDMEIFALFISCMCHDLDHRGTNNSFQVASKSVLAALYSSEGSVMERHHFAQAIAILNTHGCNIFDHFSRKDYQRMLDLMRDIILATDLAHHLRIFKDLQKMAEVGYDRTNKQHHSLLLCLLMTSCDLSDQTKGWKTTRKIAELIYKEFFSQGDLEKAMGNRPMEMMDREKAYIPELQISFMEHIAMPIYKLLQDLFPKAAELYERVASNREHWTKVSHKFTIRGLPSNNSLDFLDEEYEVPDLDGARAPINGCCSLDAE
# Method: One adrenal gland of Japanese Black Cattle, purchased from Tokyo Shibaura Zoki, co., Ltd. was washed with 100 ml of ice-cold saline (0.9% sodium chloride) twice. Subsequently, the tissues were cut into about 1 gram, and it was frozen by liquid nitrogen. To about 2 g of this tissue sample was added 10 ml of an ice-cold homogenization buffer II (25 mM Tris-HCl, pH 7.5, 4 mM magnesium chloride, 0.5 mM EGTA, 2 mM dithiothreitol, 4 mM benzamidine, 0.1 mM phenylmethylsulfonyl fluoride), and the homogenate that was homogenized by Polytron homogenizer for 3 minutes was centrifuged at 8000 rpm, at 4° C. for 20 minutes, and the obtained supernatant was further centrifuged by an ultracentrifuge at 50000 rpm, at 4° C. for 60 minutes. The resultant supernatant was stored at 4° C.
# (§1) This supernatant was applied to chromatography under the FPLC system, in the same manner as in Example 1 (1) above. […]
# Subsequently, the eluted fractions were used as an enzyme solution for PDE assay, and cGMP-hydrolyzing activity was measured. Or, cAMP-hydrolyzing activity was measured for respective fractions, in the presence or absence of unlabeled cGMP. […]
# PDE1 = test: PDE assay, PDE1 enzyme solution from rat ventricle; assay type: biochemical, SD rat; settings: E4021 100 nM
# Method: Ventricle was excised from SD rat anesthetized with sodium pentobarbital (Nihon SLC, about 300 g), and washed with 100 ml of ice-cold saline 3 times. After the tissues were cut in approximately 1 g, it was frozen by liquid nitrogen, and stored at −80° C.
# To about 5 g of this tissue sample was added 16 ml of an ice-cold homogenization buffer I, and the resultant mixture was homogenized by Polytron homogenizer for 3 minutes. The homogenate was centrifuged at 8000 rpm, at 4° C. for 20 minutes, and the obtained supernatant was further centrifuged by an ultracentrifuge at 50000 rpm, at 4° C. for 60 minutes. The resultant supernatant was stored at 4° C. […]
# Subsequently, the eluted fractions were used as an enzyme solution for PDE assay. […] (final concentration of 1 mM) or calcium chloride (final concentration of 2 mM) and calmodulin (40 unit s/ml), and cGMP-hydrolyzing activity was measured.
# For these PDE1 containing fractions, cGMP hydrolyzing activities were analyzed in the presence of E4021 (100 nM), PDE5 specific inhibitor, it was shown that the cGMP-hydrolyzing activities in these fractions were not inhibited by E4021. […]
# Further, in the presence or absence of unlabeled cGMP, cAMP-PDE activities were measured for each of the fractions. […]
# Still further, in the presence of rolipram (10 μm), the PDE4 specific inhibitor, cAMP hydrolyzing activities were measured for each of the fractions. […]
# PDE3 = target: T2, PDE3 (Canis lupus familiaris, UniProt A0A8I3NYE0); test: PDE assay, PDE3 enzyme solution from dog ventricle; assay type: biochemical, mixed-breed dog
# T2 sequence (A0A8I3NYE0 1-1135): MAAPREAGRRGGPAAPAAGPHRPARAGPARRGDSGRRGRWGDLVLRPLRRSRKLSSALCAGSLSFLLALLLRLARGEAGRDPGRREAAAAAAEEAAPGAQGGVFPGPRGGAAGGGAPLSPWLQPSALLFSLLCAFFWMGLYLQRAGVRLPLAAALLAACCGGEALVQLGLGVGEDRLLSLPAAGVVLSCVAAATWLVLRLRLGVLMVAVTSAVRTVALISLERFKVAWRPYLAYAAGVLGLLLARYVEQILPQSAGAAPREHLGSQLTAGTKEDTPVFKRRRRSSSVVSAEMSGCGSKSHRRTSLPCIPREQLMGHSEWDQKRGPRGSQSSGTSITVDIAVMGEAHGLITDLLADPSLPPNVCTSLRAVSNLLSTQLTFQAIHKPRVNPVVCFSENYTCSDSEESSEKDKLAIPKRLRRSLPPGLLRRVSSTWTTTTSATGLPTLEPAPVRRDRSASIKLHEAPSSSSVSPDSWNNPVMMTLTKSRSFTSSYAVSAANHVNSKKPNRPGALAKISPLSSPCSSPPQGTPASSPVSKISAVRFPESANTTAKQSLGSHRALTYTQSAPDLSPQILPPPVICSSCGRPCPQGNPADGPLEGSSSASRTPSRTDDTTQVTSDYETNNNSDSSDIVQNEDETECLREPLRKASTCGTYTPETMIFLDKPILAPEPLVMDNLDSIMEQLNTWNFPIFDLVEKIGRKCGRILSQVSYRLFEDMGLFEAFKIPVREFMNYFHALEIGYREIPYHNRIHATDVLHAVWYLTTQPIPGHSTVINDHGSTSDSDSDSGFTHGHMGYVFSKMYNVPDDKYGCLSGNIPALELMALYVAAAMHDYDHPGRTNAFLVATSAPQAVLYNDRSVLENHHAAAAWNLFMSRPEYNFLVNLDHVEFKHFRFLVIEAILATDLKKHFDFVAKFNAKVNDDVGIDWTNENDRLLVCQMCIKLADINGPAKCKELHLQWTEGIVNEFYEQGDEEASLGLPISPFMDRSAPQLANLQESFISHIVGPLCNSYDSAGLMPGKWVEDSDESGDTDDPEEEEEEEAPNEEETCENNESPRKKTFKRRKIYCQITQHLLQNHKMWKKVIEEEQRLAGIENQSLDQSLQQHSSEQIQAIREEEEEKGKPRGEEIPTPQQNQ
# Method: Apex portion of ventricle of mixed-breed dog (Oriental Yeast) was excised, and washed with 500 ml of ice-cold saline three times. Subsequently, the tissues were cut into about 3 g, and it was frozen by liquid nitrogen, and stored at −80° C. To about 1 g of this tissue sample was added 10 ml of an ice-cold homogenization buffer II, and the resultant mixture was homogenized by Polytron homogenizer for 3 minutes. The homogenate was centrifuged at 8000 rpm, at 4° C. for 20 minutes, and the obtained supernatant was further centrifuged by an ultracentrifuge at 40000 rpm, at 4° C. for 60 minutes. The resultant supernatant was stored at 4° C.
# as §1
# Subsequently, the eluted fractions were used as an enzyme solution for PDE assay, and cGMP-hydrolyzing activity was measured. Further, cAMP-hydrolyzing activity was measured for respective fractions, in the presence or absence of unlabeled cGMP. […]
# PDE4 = test: PDE assay, PDE4 enzyme solution from dog lung; assay type: biochemical, mixed-breed dog
# Method: These fractions were collected and glycerol was added thereto to become 50%, and the mixture was stored at −20° C.
# PDE5 = target: T3, PDE5 (Canis lupus familiaris, UniProt O77746); test: PDE assay, PDE5 enzyme solution from canine lung; assay type: biochemical
# T3 construct: These were used as a PDE5 enzyme solution for PDE assay; tissue Oriental Yeast (animals); host or cells: canine lung, soluble fraction, DEAE Sepharose fractions
# Method: In the same manner as in (1-4) above, the supernatant obtained from the homogenate of canine lung tissue was applied to chromatography under FLPC system, to collect eluted fractions of 2 ml each.
# Subsequently, the eluted fractions were used as an enzyme solution for PDE assay, and cGMP-hydrolyzing activity was measured for respective fractions, in the presence or absence of E4021, the PDE5 specific inhibitor.
# Further, for examining contamination of PDE1, which is adjacently eluted, cGMP-hydrolyzing PDE activity of the respective fractions were measured in the same assay buffer containing EGTA (final concentration of 1 mM) [or calcium chloride (final concentration of 2 mM) and calmodulin (40 units/ml)].
# These fractions were collected and glycerol was added thereto to become 50%, and the mixture was stored at −20° C. These were used as a PDE5 enzyme solution for PDE assay.
smiles,measurement,setting,value
"CCCCCC[C@@H]([C@@H](C)O)n1cnc2c(N)ncnc21 (racemic) [EHNA, erythro-9-(2-hydroxy-3-nonyl)adenine, reference compound]",PDE activity of PDE2 enzyme solution in the presence of inhibitor,PDE2,inhibited
"O=C(O)C1CCN(c2nc(NCc3ccc4c(c3)OCO4)c3cc(Cl)ccc3n2)CC1 [Compound E4021, reference compound]",cGMP-hydrolyzing activity of PDE1 containing fractions in the presence of inhibitor,PDE1,not inhibited
Cc1[nH]c(=O)c(C#N)cc1-c1ccncc1 [milrinone],PDE activity of PDE3 enzyme solution in the presence of inhibitor,PDE3,inhibited
"COc1ccc(C2CNC(=O)C2)cc1OC1CCCC1 (centres unmarked) [rolipram, reference compound]",PDE activity of PDE4 enzyme solution in the presence of inhibitor,PDE4,inhibited
"CCCc1nn(C)c2c(=O)[nH]c(-c3cc(S(=O)(=O)N4CCN(C)CC4)ccc3OCC)nc12 [sildenafil, reference compound]",PDE activity of PDE5 enzyme solution in the presence of inhibitor,PDE5,inhibited
